Measurements: ChEMBL document CHEMBL5236645, “Novel imidazo[1,5-a]quinoxaline derivatives: SAR, selectivity and modeling challenges en route to the identification of an α5-GABAA receptor NAM” (Bioorg Med Chem Lett, 2023)

How the values were obtained:
[1] = target: T1, Gamma-aminobutyric acid receptor subunit alpha-5 (Homo sapiens) (UniProt P31644); test: Displacement of flumazenil from alpha5 GABAA receptor (unknown origin) at 1 uM relative to control
T1 sequence (whole entry): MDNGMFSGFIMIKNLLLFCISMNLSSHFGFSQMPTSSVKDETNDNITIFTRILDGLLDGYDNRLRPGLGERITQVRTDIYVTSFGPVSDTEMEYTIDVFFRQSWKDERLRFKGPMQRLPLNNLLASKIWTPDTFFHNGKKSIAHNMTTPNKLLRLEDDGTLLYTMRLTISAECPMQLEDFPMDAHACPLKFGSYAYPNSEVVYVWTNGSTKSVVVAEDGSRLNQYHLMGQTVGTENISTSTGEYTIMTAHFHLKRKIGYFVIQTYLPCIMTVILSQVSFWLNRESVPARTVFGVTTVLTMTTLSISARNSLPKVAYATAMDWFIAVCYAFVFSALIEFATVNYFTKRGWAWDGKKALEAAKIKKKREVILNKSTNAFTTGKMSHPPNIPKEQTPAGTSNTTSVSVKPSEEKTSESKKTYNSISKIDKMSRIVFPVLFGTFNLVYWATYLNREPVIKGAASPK

[2] = target: T2, Gamma-aminobutyric acid receptor subunit alpha-5 (Homo sapiens, UniProt P31644); test: Displacement of flumazenil from alpha5 GABAA receptor (unknown origin)
T2 sequence (P31644 whole entry): T1 sequence (whole entry)

[3] = target: T3, Gamma-aminobutyric acid receptor subunit alpha-1 (Homo sapiens, UniProt P14867); test: Displacement of flumazenil from alpha1 GABAA receptor (unknown origin)
T3 sequence (P14867 whole entry): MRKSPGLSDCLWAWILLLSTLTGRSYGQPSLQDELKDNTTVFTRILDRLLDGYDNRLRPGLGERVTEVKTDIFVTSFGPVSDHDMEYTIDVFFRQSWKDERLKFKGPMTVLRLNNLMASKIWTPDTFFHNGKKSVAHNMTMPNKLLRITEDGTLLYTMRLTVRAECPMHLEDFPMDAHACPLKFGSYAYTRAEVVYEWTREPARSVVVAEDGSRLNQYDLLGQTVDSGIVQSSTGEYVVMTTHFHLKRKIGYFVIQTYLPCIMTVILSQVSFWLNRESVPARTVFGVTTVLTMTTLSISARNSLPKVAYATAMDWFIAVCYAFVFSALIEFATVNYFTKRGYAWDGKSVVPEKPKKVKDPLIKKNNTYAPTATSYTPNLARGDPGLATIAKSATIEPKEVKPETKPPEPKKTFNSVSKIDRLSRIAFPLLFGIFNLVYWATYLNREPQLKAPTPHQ

[4] = target: T2, Gamma-aminobutyric acid receptor subunit alpha-5; test: Negative allosteric modulation of alpha5 GABAA (unknown origin)
[5] = target: T3, Gamma-aminobutyric acid receptor subunit alpha-1; test: Negative allosteric modulation of alpha1 GABAA (unknown origin)
[6] = target: T1, Gamma-aminobutyric acid receptor subunit alpha-5 (Homo sapiens); test: Displacement of flumazenil from alpha5 GABAA receptor (unknown origin) at 10 uM relative to control; conditions: filed as modulator

Row | SMILES | Ki [2] | Ki [3] | further results
1 | Cc1noc(C)c1Cn1c(=O)c2c(C)ncn2c2ccccc21 | – | – | Activity ([1]; filed as modulator): 65%
2 | N#Cc1ccc(Cn2c(=O)c3cncn3c3ccccc32)cn1 | – | – | Activity ([1]; filed as modulator): 61%
3 | Cc1cc(Cc2ncn3c2c(=O)n(Cc2ccccn2)c2ccccc23)no1 | 379 nM | – | –
4 | O=c1c2cncn2c2cc(Cl)ccc2n1Cc1cccnc1 | 840 nM | – | –
5 | CCn1c(=O)c2cncn2c2ccccc21 | 1380 nM | – | –
6 | O=c1c2cncn2c2ccccc2n1Cc1ccccc1 | – | – | Activity ([1]; filed as modulator): 61%
7 | O=c1c2cncn2c2cc(OC(F)(F)F)ccc2n1Cc1cccnc1 | – | – | Activity ([1]; filed as modulator): 42%
8 | Cc1onc(-c2ccc(F)cc2)c1COc1ccc(C(=O)N2CCS(=O)(=O)CC2)cn1 [BASMISANIL] | – | – | Ki [4]: 4.4 nM; Ki [5]: 1210 nM
9 | N#Cc1cccc2c1n1cncc1c(=O)n2Cc1cccnc1 | – | – | Activity [1]: 0%
10 | O=c1c2cncn2c2ccccc2n1-c1ccccn1 | – | – | Activity [1]: 7%
11 | COc1cc(Cl)c2c(c1)n(Cc1cnccc1C)c(=O)c1cncn12 | 687 nM | 2100 nM | –
12 | O=c1c2cncn2c2ccccc2n1Cc1ccncc1 | – | – | Activity ([1]; filed as modulator): 62%
13 | O=c1[nH]c2ccccc2n2cncc12 | – | – | Activity [6]: 53%
14 | Cn1c(=O)c2cncn2c2ccccc21 | 2190 nM | – | –
15 | Cc1cc(-c2nnc3c4ccccc4c(OCc4ccccn4)nn23)no1 | – | – | Ki [4]: 0.5 nM; Ki [5]: 0.4 nM
16 | CCc1ncn2c1c(=O)n(Cc1ccccn1)c1ccccc12 | 360 nM | – | –
17 | O=c1c2cncn2c2cc(F)c(F)cc2n1Cc1cccnc1 | – | – | Activity ([1]; filed as modulator): 57%
18 | O=c1c2cncn2c2ccccc2n1CCc1ccccn1 | – | – | Activity [1]: 29%
19 | O=C(c1ccc(Cn2c(=O)c3cncn3c3ccccc32)cn1)N1CCOCC1 | – | – | Activity [1]: 38%
20 | COc1ccc2c(c1)n1cncc1c(=O)n2Cc1cccnc1 | – | – | Activity [1]: 18%

Continued, in another order:

Row | Ki [2] | Ki [3] | SMILES | further results
21 | 56 nM | 32 nM | Cc1cc(Cn2c(=O)c3cncn3c3ccccc32)no1 | –
22 | 30 nM | – | Cc1cc(Cn2c(=O)c3c(C)ncn3c3ccccc32)no1 | –
23 | 132 nM | 52 nM | O=c1c2cncn2c2ccccc2n1Cc1ccccn1 | –
24 | 89 nM | 76 nM | O=c1c2cncn2c2ccc(Br)cc2n1Cc1cccnc1 | –
25 | 244 nM | – | COc1ccc(Cn2c(=O)c3cncn3c3ccccc32)cc1 | –
26 | 107 nM | – | Cc1ncccc1Cn1c(=O)c2cncn2c2ccccc21 | –
27 | 33 nM | 55 nM | O=c1c2cncn2c2ccccc2n1Cc1cnccn1 | –
28 | 52 nM | 100 nM | O=c1c2c(CO)ncn2c2ccccc2n1Cc1cccnc1 | –
29 | 122 nM | – | O=c1c2cncn2c2cccnc2n1Cc1cccnc1 | –
30 | 86 nM | 600 nM | Cc1cccc2c1n1cncc1c(=O)n2Cc1cccnc1 | –
31 | 28 nM | 32 nM | O=c1c2cncn2c2ccccc2n1Cc1cccnc1 | –
32 | 20 nM | 120 nM | COc1ccc2c(c1)n(Cc1cccnc1)c(=O)c1cncn12 | –
33 | 0.3 nM | 0.4 nM | CCOC(=O)c1ncn2c1c(=O)n(Cc1cccnc1)c1ccccc12 | –
34 | 64 nM | 123 nM | Cn1cc(Cn2c(=O)c3cncn3c3ccccc32)cn1 | –
35 | 15 nM | 30 nM | O=c1c2cncn2c2ccccc2n1Cc1cncnc1 | –
36 | 65 nM | 16 nM | Cc1ncn2c1c(=O)n(Cc1ccccn1)c1ccccc12 | –
37 | 48 nM | 74 nM | CN1C(=O)COc2cc(Cn3c(=O)c4cncn4c4ccccc43)ccc21 | –
38 | 18 nM | 8 nM | Cc1ncn2c1c(=O)n(Cc1cccnc1)c1ccccc12 | –
39 | 210 nM | 310 nM | CC(C)(C)c1ccc2c(c1)n(Cc1cccnc1)c(=O)c1cncn12 | –
40 | 80 nM | 23 nM | O=c1c2c(CC3CC3)ncn2c2ccccc2n1Cc1ccccn1 | –
41 | 295 nM | 2150 nM | O=c1c2cncn2c2c(Cl)cccc2n1Cc1cccnc1 | –
42 | 12 nM | 5.4 nM | O=c1c2c(Cl)ncn2c2ccccc2n1Cc1ccccn1 | –
43 | 142 nM | 670 nM | COc1cc(Cl)c2c(c1)n(Cc1cccnc1)c(=O)c1cncn12 | –
44 | 1.7 nM | 3.6 nM | Cc1ncc(Cn2c(=O)c3cncn3c3ccccc32)cn1 | –
45 | 17 nM | 60 nM | Cc1cncc(Cn2c(=O)c3cncn3c3ccccc32)c1 | –
46 | 17 nM | 60 nM | Cc1ccncc1Cn1c(=O)c2cncn2c2ccccc21 | –
47 | 16 nM | 35 nM | Cc1ccc(Cn2c(=O)c3cncn3c3ccccc32)cn1 | –
48 | 138 nM | 420 nM | O=c1c2cncn2c2c(Cl)cc(Cl)cc2n1Cc1cccnc1 | –
49 | 2 nM | 7 nM | CCOC(=O)c1ncn2c1c(=O)n(Cc1cccnc1)c1cccc(Cl)c12 | –
50 | 11 nM | 15 nM | O=c1c2cncn2c2ccc(Cl)cc2n1Cc1cccnc1 | –
